Holding throughout (format): functional
What all share (conditions): read-out: DIZ

The test system of test [1] is Bacillus subtilis. In words: Antibacterial activity against Bacillus subtilis assessed as diameter of growth inhibition zone at 100 ug/ml after 24 hr by agar diffusion method.
Test [2] relates to Proteus mirabilis. In words: Antibacterial activity against Proteus mirabilis assessed as diameter of growth inhibition zone at 50 ug/ml after 24 hr by agar diffusion method.
In test [3] the test system is Salmonella typhi. Nature of the test: Antibacterial activity against Salmonella enterica subsp. enterica serovar Typhi assessed as diameter of growth inhibition zone at 50 ug/ml after 24 hr by agar diffusion method. (In agar diffusion tests the substance spreads into inoculated agar from a disc or well.)
Test [4] relates to Pseudomonas aeruginosa. Nature of the test: Antibacterial activity against Pseudomonas aeruginosa assessed as diameter of growth inhibition zone at 50 ug/ml after 24 hr by agar diffusion method.
Test [5] relates to Escherichia coli. In words: Antibacterial activity against Escherichia coli assessed as diameter of growth inhibition zone at 50 ug/ml after 24 hr by agar diffusion method.
Test [6] concerns Staphylococcus aureus. Nature of the test: Antibacterial activity against Staphylococcus aureus assessed as diameter of growth inhibition zone at 50 ug/ml after 24 hr by agar diffusion method.
In test [7] the test system is Bacillus subtilis. Nature of the test: Antibacterial activity against Bacillus subtilis assessed as diameter of growth inhibition zone at 50 ug/ml after 24 hr by agar diffusion method.
Test [8] deals with Proteus mirabilis. Nature of the test: Antibacterial activity against Proteus mirabilis assessed as diameter of growth inhibition zone at 100 ug/ml after 24 hr by agar diffusion method.
Test [9] deals with Salmonella typhi. In words: Antibacterial activity against Salmonella enterica subsp. enterica serovar Typhi assessed as diameter of growth inhibition zone at 100 ug/ml after 24 hr by agar diffusion method.
Test [10] relates to Pseudomonas aeruginosa. In words: Antibacterial activity against Pseudomonas aeruginosa assessed as diameter of growth inhibition zone at 100 ug/ml after 24 hr by agar diffusion method.
The subject of test [11] is Escherichia coli. Nature of the test: Antibacterial activity against Escherichia coli assessed as diameter of growth inhibition zone at 100 ug/ml after 24 hr by agar diffusion method.
The subject of test [12] is Staphylococcus aureus. Nature of the test: Antibacterial activity against Staphylococcus aureus assessed as diameter of growth inhibition zone at 100 ug/ml after 24 hr by agar diffusion method.

The results in this text go back to ChEMBL document CHEMBL3045275, “Synthesis and antibacterial activity of some new hydrazones” (2013).

Consider `CC(/C=C/c1ccccc1)=N\Nc1ccccc1`, for which the zone of inhibition at 100 µg/mL was 8.5 mm in test [1]; 9 mm in test [8]; 8.5 mm in test [9]; 8.5 mm in test [10]; 8.5 mm in [11]; 8.5 mm in test [12]. Besides, the zone of inhibition at 50 µg/mL in test [2] was found to be 6 mm; in test [3], 6.5 mm; in test [4], 6 mm; in test [5] it was 6 mm; in test [6], 6 mm; in [7] it was 6.5 mm.
Take `CC(/C=C/c1ccccc1)=N/Nc1nc(-c2ccccc2)cs1`: the zone of inhibition at 100 µg/mL is 8.5 mm in test [1]; 8 mm in [8]; 8 mm in [9]; 8 mm in test [10]; 9 mm in [11]; 9.5 mm in test [12]. For the same compound, the zone of inhibition at 50 µg/mL in [2] was found to be 6.5 mm; in test [3] it was 6 mm; in test [4] it was 6 mm; in test [5], 6 mm; in [6], 6.5 mm; in [7] it was 6 mm.
Regarding `CC1=NC(=C/c2ccccc2)/C(=N/Nc2ccc([N+](=O)[O-])cc2[N+](=O)[O-])O1`, the zone of inhibition at 100 µg/mL in test [1] amounted to 9 mm; in [8], 9.5 mm; in test [9] it was 8 mm; in test [10] it was 8.5 mm; in [11], 8.5 mm; in [12], 9 mm. Moreover, the zone of inhibition at 50 µg/mL in test [2] stood at 6 mm; in [3] it was 6.5 mm; in test [4], 6 mm; in test [5] it was 6 mm; in test [6], 6.5 mm; in test [7], 6 mm.
In the case of `O=C(O)c1cn(C2CC2)c2cc(N3CCNCC3)c(F)cc2c1=O` [CIPROFLOXACIN], the zone of inhibition at 50 µg/mL came to 19.5 mm in test [2]; 18 mm in test [3]; 19 mm in [4]; 18.5 mm in [5]; 18 mm in test [6]; 18 mm in test [7].
On to `CC1=NC(=C/c2ccccc2)/C(=N/Nc2ccccc2)O1`, for which the zone of inhibition at 100 µg/mL in test [1] is 9.5 mm; in test [8], 8.5 mm; in test [9], 8 mm; in [10], 8 mm; in test [11], 9 mm; in test [12] it was 16 mm. Moreover, the zone of inhibition at 50 µg/mL in test [2] was 6.5 mm; in test [3] it was 6 mm; in test [4], 6 mm; in test [5], 6.5 mm; in [6], 14 mm; in [7] it was 6 mm.
For the compound `CC(/C=C/c1ccccc1)=N\Nc1ccc(-c2nc3ccccc3[nH]2)cc1`, the zone of inhibition at 100 µg/mL in [1] was found to be 8.5 mm; in test [8], 8.5 mm; in [9], 8 mm; in test [10], 8 mm; in test [11] it was 9 mm; in test [12] it was 8 mm. The zone of inhibition at 50 µg/mL amounted to 6.5 mm in test [2]; 6 mm in [3]; 6 mm in [4]; 6.5 mm in test [5]; 6.5 mm in [6]; 6 mm in test [7].
As to `C(=C\c1ccccc1)/C(=N\Nc1nc(-c2ccccc2)cs1)c1ccccc1`, the zone of inhibition at 100 µg/mL came to 8.5 mm in test [1]; 8.5 mm in test [8]; 8 mm in test [9]; 8 mm in [10]; 8.5 mm in test [11]; 8.5 mm in test [12]. The zone of inhibition at 50 µg/mL in test [2] is 6.5 mm; in test [3], 6 mm; in test [4], 6 mm; in [5], 7 mm; in test [6], 6.5 mm; in test [7] it was 6.5 mm.
For the compound `O=[N+]([O-])c1ccc(N/N=C(/C=C/c2ccccc2)c2ccccc2)c([N+](=O)[O-])c1`, the zone of inhibition at 100 µg/mL in [1] came to 9 mm; in [8] it was 9.5 mm; in test [9] it was 8.5 mm; in test [10], 8.5 mm; in test [11], 8 mm; in test [12], 8.5 mm. The zone of inhibition at 50 µg/mL in test [2] is 6.5 mm; in [3], 6.5 mm; in test [4] it was 6 mm; in test [5] it was 6.5 mm; in [6] it was 6 mm; in test [7], 6.5 mm.
Regarding `O=C(N/N=C(/C=C/c1ccccc1)c1ccccc1)c1ccncc1`, the zone of inhibition at 100 µg/mL stood at 8.5 mm in test [1]; 8 mm in test [8]; 8 mm in test [9]; 8.5 mm in test [10]; 8 mm in test [11]; 8 mm in test [12]. Further, the zone of inhibition at 50 µg/mL in test [2] turned out to be 6.5 mm; in [3] it was 6 mm; in [4], 6 mm; in test [5] it was 6 mm; in test [6], 6 mm; in [7], 6 mm.
Consider `C(=C\c1ccccc1)/C(=N/Nc1ccc(-c2nc3ccccc3[nH]2)cc1)c1ccccc1`, for which the zone of inhibition at 100 µg/mL was 8.5 mm in test [1]; 8.5 mm in test [8]; 8 mm in test [9]; 8.5 mm in test [10]; 8.5 mm in test [11]; 9 mm in test [12]. Further, the zone of inhibition at 50 µg/mL amounted to 6 mm in test [2]; 6.5 mm in [3]; 6 mm in [4]; 6 mm in [5]; 6.5 mm in test [6]; 6 mm in test [7].
Consider `CC(/C=C/c1ccccc1)=N\NC(=O)c1ccncc1`, for which the zone of inhibition at 100 µg/mL stood at 8.5 mm in [1]; 8.5 mm in test [8]; 8.5 mm in test [9]; 8 mm in test [10]; 8 mm in test [11]; 8.5 mm in test [12]. Besides, the zone of inhibition at 50 µg/mL in test [2], in test [3], in test [4], in test [5], in [6] and in [7] was 6 mm in each case.
